Test results published in ChEMBL document CHEMBL1201862, “PubChem BioAssay data set” (2004).
The source made the active and inactive calls.

How the values were obtained:
[1] = viability of uninfected HEp-2 cells – cell-based, HTS, cytotoxicity control for RSV inhibitor project, dose response (AID 2410); format: functional; details: human respiratory syncytial virus
[2] = viability of PTEN-deleted HCT116 cells – cell-based, HCT116 PTEN knockout, dose response (AID 1047); format: functional;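 note: HCT116 colon tumor cells with PTEN knocked out; cells exposed to compound for 60 hours before readout; potency for loss of cell viability measured by luminescence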
P388/ADR = test: cells; format: functional; details: Mus musculus
SN12K1 = test: cells; format: functional; details: Homo sapiens
P388 = test: cells; format: functional; details: Mus musculus
cells [3] = format: functional, cell-based
cells [4] = format: functional, cell-based; remark: listed apart in the source
Cytochrome P450 2C9 = Cytochrome P450 2C9 (Homo sapiens, UniProt P11712)
[5] = target: T1, Replicative DNA helicase DnaB (Mycobacterium tuberculosis, UniProt P9WMR3); test: DnaB intein splicing inhibitors, dose response, biochemical, cell-free fluorescence (AID 449749); format: functional
T1 sequence (P9WMR3 whole entry): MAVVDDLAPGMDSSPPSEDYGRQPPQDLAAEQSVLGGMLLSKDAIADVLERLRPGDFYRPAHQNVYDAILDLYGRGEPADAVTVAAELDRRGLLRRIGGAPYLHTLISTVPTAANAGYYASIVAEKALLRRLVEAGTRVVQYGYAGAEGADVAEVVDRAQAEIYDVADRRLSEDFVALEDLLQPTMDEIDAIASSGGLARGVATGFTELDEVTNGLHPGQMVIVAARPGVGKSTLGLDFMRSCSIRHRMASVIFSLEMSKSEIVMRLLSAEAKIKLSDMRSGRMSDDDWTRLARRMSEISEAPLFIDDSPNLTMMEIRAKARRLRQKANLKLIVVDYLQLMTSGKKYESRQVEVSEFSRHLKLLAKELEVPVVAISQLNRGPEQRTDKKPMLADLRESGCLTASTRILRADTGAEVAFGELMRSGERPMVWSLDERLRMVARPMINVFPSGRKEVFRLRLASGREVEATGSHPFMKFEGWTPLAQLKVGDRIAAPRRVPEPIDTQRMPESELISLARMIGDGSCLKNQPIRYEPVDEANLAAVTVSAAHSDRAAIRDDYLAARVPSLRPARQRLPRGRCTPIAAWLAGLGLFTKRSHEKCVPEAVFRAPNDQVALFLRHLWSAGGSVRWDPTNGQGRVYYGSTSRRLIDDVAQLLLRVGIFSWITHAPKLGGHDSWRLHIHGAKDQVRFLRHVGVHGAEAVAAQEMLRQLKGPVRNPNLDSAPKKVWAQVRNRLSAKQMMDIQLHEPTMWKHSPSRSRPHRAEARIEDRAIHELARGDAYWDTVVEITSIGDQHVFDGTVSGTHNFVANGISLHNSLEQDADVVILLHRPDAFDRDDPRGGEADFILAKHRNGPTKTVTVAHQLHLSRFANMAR

Protein RecA = target: T2, Protein RecA (Mycobacterium tuberculosis, UniProt P9WHJ3); test: Fluorescence Cell-Free Homogeneous Dose Retest to Identify Inhibitors of RecA-Intein Splicing Activity. [Related pubchem assays (depositor defined):AID2097, AID2223, AID489010, AID492950]; format: functional
T2 sequence (P9WHJ3 whole entry): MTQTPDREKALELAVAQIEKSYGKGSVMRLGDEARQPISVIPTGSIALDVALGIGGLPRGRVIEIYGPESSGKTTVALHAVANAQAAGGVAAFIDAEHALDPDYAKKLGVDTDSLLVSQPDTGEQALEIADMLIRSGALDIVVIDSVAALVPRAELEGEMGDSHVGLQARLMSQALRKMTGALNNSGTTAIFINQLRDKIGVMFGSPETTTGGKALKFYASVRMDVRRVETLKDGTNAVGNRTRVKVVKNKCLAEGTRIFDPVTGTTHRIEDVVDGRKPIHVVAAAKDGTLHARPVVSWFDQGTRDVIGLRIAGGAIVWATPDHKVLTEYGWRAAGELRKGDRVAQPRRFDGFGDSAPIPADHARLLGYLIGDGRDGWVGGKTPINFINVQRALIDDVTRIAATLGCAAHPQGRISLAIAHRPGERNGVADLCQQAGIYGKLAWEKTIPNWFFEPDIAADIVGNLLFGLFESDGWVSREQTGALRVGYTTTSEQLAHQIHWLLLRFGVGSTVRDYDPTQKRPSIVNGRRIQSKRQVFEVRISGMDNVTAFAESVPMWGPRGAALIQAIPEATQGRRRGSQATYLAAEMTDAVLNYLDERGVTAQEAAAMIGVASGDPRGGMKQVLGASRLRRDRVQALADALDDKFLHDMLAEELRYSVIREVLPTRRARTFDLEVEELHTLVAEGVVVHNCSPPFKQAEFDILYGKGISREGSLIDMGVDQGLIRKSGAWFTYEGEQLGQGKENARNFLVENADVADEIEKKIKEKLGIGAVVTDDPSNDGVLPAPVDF

Cytochrome P450 2C19 = Cytochrome P450 2C19 (Homo sapiens, UniProt P33261); test: Cytochrome panel assay with activity outcomes. Panel member name: p450-cyp2c19 Compounds with AC50 equal or less than 10 uM are considered active; format: functional; details: read-out: AC50
Cytochrome P450 2D6 = Cytochrome P450 2D6 (Homo sapiens, UniProt P10635);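 note: CYP2D6 member of a cytochrome P450 panel assay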
Cytochrome P450 1A2 = target: T3, Cytochrome P450 1A2 (Homo sapiens, UniProt P05177);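 note: PubChem cytochrome P450 panel assay, CYP1A2 panel member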
T3 sequence (P05177 whole entry): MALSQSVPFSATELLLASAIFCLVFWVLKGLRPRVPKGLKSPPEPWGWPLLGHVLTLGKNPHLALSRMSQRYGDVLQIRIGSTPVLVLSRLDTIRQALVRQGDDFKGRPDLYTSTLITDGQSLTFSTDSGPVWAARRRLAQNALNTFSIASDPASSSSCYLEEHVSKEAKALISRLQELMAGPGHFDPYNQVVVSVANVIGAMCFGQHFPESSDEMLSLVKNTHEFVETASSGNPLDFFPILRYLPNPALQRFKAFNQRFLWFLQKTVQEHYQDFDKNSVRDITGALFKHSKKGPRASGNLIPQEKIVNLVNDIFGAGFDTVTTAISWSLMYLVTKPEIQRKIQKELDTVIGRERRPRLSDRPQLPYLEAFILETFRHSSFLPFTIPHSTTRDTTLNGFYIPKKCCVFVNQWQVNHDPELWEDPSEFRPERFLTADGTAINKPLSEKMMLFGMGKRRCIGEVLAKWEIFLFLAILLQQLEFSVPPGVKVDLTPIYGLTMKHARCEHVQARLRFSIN

Cytochrome P450 3A4 = Cytochrome P450 3A4 (Homo sapiens, UniProt P08684);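 note: CYP3A4 tested as one member of a cytochrome P450 panel screen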
[6] = Luminescence Cell-Based Dose Response HTS to Identify Activators of Luciferase Translation or Activity in H4 […] Cells. [Related pubchem assays: 1829 (Project Summary), 1814 (Primary HTS)]; format: functional

Sequence of Cytochrome P450 2D6 (P10635 whole entry): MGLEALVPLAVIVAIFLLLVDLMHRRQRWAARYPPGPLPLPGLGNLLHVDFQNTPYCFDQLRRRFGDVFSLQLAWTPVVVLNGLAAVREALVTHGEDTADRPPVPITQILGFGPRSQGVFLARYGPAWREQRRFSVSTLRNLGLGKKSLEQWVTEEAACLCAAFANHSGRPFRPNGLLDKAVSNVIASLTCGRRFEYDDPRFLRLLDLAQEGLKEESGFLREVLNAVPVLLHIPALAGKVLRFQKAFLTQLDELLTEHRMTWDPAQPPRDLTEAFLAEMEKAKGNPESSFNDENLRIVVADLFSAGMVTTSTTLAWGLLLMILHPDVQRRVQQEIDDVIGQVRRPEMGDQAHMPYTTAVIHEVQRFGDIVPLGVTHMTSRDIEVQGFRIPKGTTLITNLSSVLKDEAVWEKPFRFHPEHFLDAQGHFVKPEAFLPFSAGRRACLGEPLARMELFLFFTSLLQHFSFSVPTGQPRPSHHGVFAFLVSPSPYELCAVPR
Sequence of Cytochrome P450 2C9 (P11712 whole entry): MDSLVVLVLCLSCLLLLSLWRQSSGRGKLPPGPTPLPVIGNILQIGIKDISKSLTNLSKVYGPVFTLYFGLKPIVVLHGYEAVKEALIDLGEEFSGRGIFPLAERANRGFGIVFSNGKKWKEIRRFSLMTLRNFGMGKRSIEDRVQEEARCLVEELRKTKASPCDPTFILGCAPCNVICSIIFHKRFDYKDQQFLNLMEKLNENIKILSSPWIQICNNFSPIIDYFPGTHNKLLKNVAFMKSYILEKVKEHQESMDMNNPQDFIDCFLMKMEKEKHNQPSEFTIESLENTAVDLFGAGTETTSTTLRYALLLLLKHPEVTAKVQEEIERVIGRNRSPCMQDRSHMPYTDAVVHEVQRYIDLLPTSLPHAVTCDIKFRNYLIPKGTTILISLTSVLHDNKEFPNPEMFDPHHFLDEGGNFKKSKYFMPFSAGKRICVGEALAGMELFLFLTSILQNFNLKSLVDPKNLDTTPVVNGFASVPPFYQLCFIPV
Sequence of Cytochrome P450 3A4 (P08684 whole entry): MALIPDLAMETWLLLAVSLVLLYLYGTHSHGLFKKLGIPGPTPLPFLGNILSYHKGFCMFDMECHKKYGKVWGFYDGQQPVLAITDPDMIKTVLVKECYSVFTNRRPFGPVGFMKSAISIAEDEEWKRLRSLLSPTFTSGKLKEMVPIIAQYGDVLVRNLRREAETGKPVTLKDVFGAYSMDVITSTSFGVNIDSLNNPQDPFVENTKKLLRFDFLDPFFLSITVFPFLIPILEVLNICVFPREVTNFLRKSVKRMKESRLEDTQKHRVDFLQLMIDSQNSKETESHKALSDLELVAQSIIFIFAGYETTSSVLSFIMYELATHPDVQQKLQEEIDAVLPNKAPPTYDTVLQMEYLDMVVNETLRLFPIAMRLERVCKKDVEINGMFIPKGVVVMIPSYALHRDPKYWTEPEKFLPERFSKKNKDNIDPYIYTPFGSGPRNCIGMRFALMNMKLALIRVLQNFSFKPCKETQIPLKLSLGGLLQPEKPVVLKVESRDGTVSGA
Sequence of Cytochrome P450 2C19 (P33261 whole entry): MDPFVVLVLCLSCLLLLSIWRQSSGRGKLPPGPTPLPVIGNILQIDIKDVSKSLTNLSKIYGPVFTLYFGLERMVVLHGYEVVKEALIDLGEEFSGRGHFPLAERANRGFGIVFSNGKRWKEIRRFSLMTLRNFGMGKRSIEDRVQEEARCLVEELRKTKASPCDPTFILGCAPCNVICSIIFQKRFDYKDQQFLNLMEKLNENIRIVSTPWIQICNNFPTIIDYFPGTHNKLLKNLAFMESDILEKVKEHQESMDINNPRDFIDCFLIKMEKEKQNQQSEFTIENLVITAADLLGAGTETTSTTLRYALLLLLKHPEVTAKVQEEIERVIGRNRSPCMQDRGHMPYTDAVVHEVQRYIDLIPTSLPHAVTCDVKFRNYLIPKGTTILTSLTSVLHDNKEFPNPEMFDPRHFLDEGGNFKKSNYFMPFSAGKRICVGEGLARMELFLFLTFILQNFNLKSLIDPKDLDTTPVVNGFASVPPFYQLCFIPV

SMILES | GI50 (P388/ADR) | GI50 (SN12K1) | GI50 (P388) | AC50 (Cytochrome P450 2C19) | other results
CCN(CC)C(=O)CCCOc1ccc(Cl)cc1Cl |  |  |  |  | CC50 [1]: 22.1 µM (active); EC50 [2]: 137 µM (active)
CCOC(=O)CN(CC)C(=O)NC12CC3CC(CC(C3)C1)C2 | 120 µM (inactive) | 188 µM (inactive) | 175 µM (inactive) |  | 
C=C1C(=O)[C@@]23CC[C@H]4[C@@](C)(CCC[C@@]4(C)C(=O)OC)[C@@H]2CC[C@]1(O)C3 | 0.0483 µM (active) | 1.45 µM (inactive) | 0.153 µM (active) |  | 
C/C=C1\C[C@@H]2C(OC)Nc3cc(O)c(OC)cc3C(=O)N2C1 (some centres not stated) | 0.01 µM (active) | 0.01 µM (active) | 0.01 µM (active) |  | 
COc1ccc(CC(NC(C)=O)C(=O)NC2CCN(C(=O)Nc3ccc(Cl)cc3)CC2)cc1OC (configuration not stated) |  |  |  |  | EC50 (cells [3]): > 350 µM (not active); EC50 (cells [4]): > 350 µM (not active); AC50 (Cytochrome P450 2C9): 12.6 µM (inconclusive)
O=C1C2=C(C3=NCCc4c[nH]c1c43)c1c(cc(Br)c(O)c1Br)CCN2 | 10.2 µM (inactive) | 6.97 µM (inactive) | 3.37 µM (inactive) |  | 
Nc1nccc2c1ncn2C1C=C(CO)C(O)C1O (configuration not stated) | 0.051 µM (active) | 0.811 µM (active) | 0.0982 µM (active) |  | 
Cc1ccc(-c2csc3nc(SCC(=O)N(C)C)n(Cc4ccccc4)c(=O)c23)cc1 |  |  |  |  | EC50 (cells [3]): > 350 µM (not active); EC50 (cells [4]): > 350 µM (not active)
CCOC(=O)N1CCC2(CC1)C(C#N)=C(N)Oc1[nH]nc(C)c12 |  |  |  |  | AC50 [5]: 8.2 µM (active); EC50 (Protein RecA): 1.43 µM (active)
NCCSCCc1ccccc1 |  |  |  | 3.16 µM (inconclusive) | AC50 (Cytochrome P450 2D6): 3.16 µM (inconclusive)
Clc1c(CSc2nc3ccccc3o2)nc2sccn12 |  |  |  |  | EC50 (cells [3]): > 350 µM (not active); EC50 (cells [4]): 21 µM (active)
CCN(CC)CCCC(C)Nc1c2ccc(Cl)cc2nc2cc(Cl)ccc12 (configuration not stated) | 1.71 µM (inactive) | 2.81 µM (inactive) | 1.87 µM (inactive) |  | 
COc1ccc(C2COc3cc(OC(C)=O)c(OC(C)=O)cc3C2)cc1 (configuration not stated) | 2.87 µM (inactive) | 13.9 µM (inactive) | 3.08 µM (inactive) |  | 
CCCN1C(=O)/C(=C(/O)C(=O)OCC)C(c2ccc(OC)c(OC)c2)C1=O (configuration not stated) | > 100 µM (inactive) | > 100 µM (inactive) | > 100 µM (inactive) |  | 
CCCCCC/C=C1\CCC(CN(C)C)C1=O (configuration not stated) | 0.673 µM (active) | 2.17 µM (inactive) | 1.08 µM (active) |  | 
CS(=O)(=O)Nc1cccc(-c2cc(NCc3ccccc3)ncn2)c1 |  |  |  | 39.8 µM (inconclusive) | AC50 (Cytochrome P450 2D6): 31.6 µM (inconclusive)
c1ccc(-c2csc3ncn4cnnc4c23)cc1 |  |  |  | 11.2 µM (inconclusive) | AC50 (Cytochrome P450 1A2): 0.251 µM (inconclusive); AC50 (Cytochrome P450 2C9): 20 µM (inconclusive)
Nc1ccc2[nH]ncc2c1 |  |  |  |  | AC50 [5]: 324 µM (active); EC50 (Protein RecA): 36.1 µM (active)

SMILES | GI50 (P388/ADR) | GI50 (SN12K1) | GI50 (P388) | AC50 (Cytochrome P450 2C19) | other results
CN1C(=O)C(=C(N)COc2ccccc2)C(=O)N(C)C1=O |  |  |  | 15.8 µM (inconclusive) | AC50 (Cytochrome P450 2C9): 14.1 µM (inconclusive)
COc1cccc(Cn2c(=O)c(-c3ccccc3)nc3cnc(N4CCNCC4)nc32)c1 |  |  |  | 39.8 µM (inconclusive) | AC50 (Cytochrome P450 2D6): 10 µM (inconclusive); AC50 (Cytochrome P450 1A2): 3.16 µM (inconclusive)
O=c1ccn([C@@H]2C=C(CO)[C@@H](O)[C@H]2O)c(=O)[nH]1 |  | > 625 µM (inactive) | > 625 µM (inactive) |  | 
COc1cccc(C2=NOC(C(=O)NCc3ccccn3)C2)c1 (configuration not stated) |  |  |  | 25.1 µM (inconclusive) | AC50 (Cytochrome P450 3A4): 15.8 µM (inconclusive)
COc1cccc2c1C(=O)c1c(O)c3c(c(O)c1C2=O)C[C@@](O)(C(=O)CN1CCOCC1)C[C@@H]3OC1CC(N)C(O)C(C)O1 (some centres not stated) | 14.7 µM (inactive) | 0.649 µM (active) | 0.361 µM (active) |  | 
CCOc1cc(/C=N/NC(=O)c2cccnc2)ccc1OCc1ccc(C(=O)OC)o1 |  |  |  |  | EC50 (cells [3]): > 350 µM (not active); EC50 (cells [4]): > 350 µM (not active)
CC1=NCCc2cc3[nH]c4ccccc4c3cc21 | 9.04 µM (inactive) | 14.6 µM (inactive) | 6.73 µM (inactive) |  | 
Cc1ccc(C(=O)C2C(=O)c3ccccc3C2=O)cc1 |  |  |  | 22.4 µM (inconclusive) | AC50 (Cytochrome P450 1A2): 25.1 µM (inconclusive)
COc1ccc(C(=O)Nc2ccc(C(=O)NCCc3ccc(OC)c(OC)c3)cc2)cc1 |  |  |  |  | EC50 (cells [3]): > 350 µM (not active); EC50 (cells [4]): > 350 µM (not active)
Nc1ccc2cn[nH]c2c1 |  |  |  |  | AC50 [5]: 4.45 µM (active); EC50 (Protein RecA): 9.02 µM (active)
CCc1ccc(-c2ccc(C(=O)C(F)(F)F)[nH]2)cc1 |  |  |  | 5.01 µM (inconclusive) | EC50 [6]: 0.19 µM (active)
Cc1ccc(-n2c(SCC(=O)N3CCOCC3)nnc2-c2cccnc2)cc1 |  |  |  | 22.4 µM (inconclusive) | AC50 (Cytochrome P450 1A2): 10 µM (inconclusive); AC50 (Cytochrome P450 3A4): 10 µM (inconclusive); AC50 (Cytochrome P450 2C9): 17.8 µM (inconclusive)
CC(=O)Nc1cccc(OC(=O)COc2ccc(Br)cc2)c1 |  |  |  |  | AC50 [5]: 11 µM (active); EC50 (Protein RecA): 20.6 µM (active)
Cc1ccc(Oc2nc(-c3ccccc3)ncc2S(C)(=O)=O)cc1 |  |  |  | 3.16 µM (inconclusive) | AC50 (Cytochrome P450 3A4): 14.1 µM (inconclusive)
COc1cc2c(cc1OC)-c1c/c(=N/c3c(C)cc(C)cc3C)n(C)c(=O)n1CC2 |  |  |  | 31.6 µM (inconclusive) | AC50 (Cytochrome P450 2D6): 31.6 µM (inconclusive)
CCC1CCCCN1CCCNC(=O)C1CCN(c2nnc(-n3cccc3)s2)CC1 (configuration not stated) |  |  |  |  | EC50 (cells [3]): > 350 µM (not active); EC50 (cells [4]): > 350 µM (not active)
Cn1c(=O)c(CCc2ccccc2)nc2cncnc21 |  |  |  | 39.8 µM (inconclusive) | AC50 (Cytochrome P450 3A4): 15.8 µM (inconclusive); AC50 (Cytochrome P450 2C9): 31.6 µM (inconclusive)
